The text below walks through data of patent US7799781B2, “5,6,7,8-tetrahydropteridine derivatives as HSP90 inhibitors” (AstraZeneca AB, priority 2007, dated 2010).

pIC50: −log10 of the molar value.

The experiment deals with T1, HSP90α (Homo sapiens, UniProt P07900).
T1 construct: 6H is tagged HSP90α protein (amino acids 2-732) expressed in E. coli; 6His; made in house; host or cells: E. coli
Nature of the experiment: Test (a) In Vitro Binding Assay (fluorescence polarisation, binding to the ATP pocket of HSP90α). The following applies: FP probe displacement, geometric mean where tested more than once. The protocol: Test (a) In Vitro Binding Assay
Test (a) measures the ability of a compound to bind to the ATP pocket of HSP90α. 6H is tagged HSP90α protein (amino acids 2-732) expressed in E. coli was purified and stored at −80° C. in aliquots. Assay measurements were performed in assay buffer comprising 20 mM HEPES pH 7.4, 50 mM KCl, 20 mM NaHMoO4, 0.01% Nonidet P40, 2 mM DTT and 0.1 mg/ml BSA. Following resuspension in DMSO, the FP probe 3-[[5-(5-ethyl-2,4-dihydroxy-phenyl)-4-(4-methoxyphenyl)2H-pyrazole-3-carbonyl]amino]propyl-Cy3B-amide; 14-(2-{[3-({[3-(5-ethyl-2,4-dihydroxyphenyl)-4-(4-methoxyphenyl)-1H-pyrazol-5-yl]carbonyl}amino)propyl]amino}-2-oxoethyl)-16,16,18,18-tetramethyl-2-sulfo-6,7,7a,8a,9,10,16,18-octahydrobenzo[2″,3″]indolizino [8″,7″:5′,6′]pyrano[3′,2′:3,4]pyrido[1,2-a]indol-5-ium) was diluted to a final concentration of 5 nM in assay buffer. Test compounds were prepared by dilution in 100% DMSO to give the appropriate dose range and dispensed into a 384 well assay plate as a 6X concentrate. Upon addition of recombinant HSP90α to a final assay concentration of 1 μg/ml, FP probe was added and plates incubated at room temperature for 1 to 4 hours. Final DMSO concentration was 1% in a total assay volume of 18 μl. Fluorescence Polarisation measurements were made using a Tecan Ultra plate reader using an excitation wavelength of 530 nm and an emission wavelength of 590 nm. Millipolarisation (mP) values were estimated using Xfluor software.
The data in the above table was generated in an assay substantially as described above in relation to in-vitro Binding Assay (a). Some of the compounds shown in the table were tested more than once in the assay. For those compounds the IC50 value shown is the geometric mean of the measured IC50 values. Therefore, as will be understood, the IC50 values quoted above are not absolute and further measurements of the IC50 values may result in a different mean IC50 value.
In general terms: In fluorescence polarisation assays a small probe gives low polarisation when free and higher when bound to something large.
Usually pIC50 stands for the IC50 on a negative log10 scale, so that one unit is a factor of ten. High values mean a low IC50, low ones a high IC50. In turn, `COc1c(C)cnc(CN2CC(=O)N(CCC(C)C)c3c(Cl)nc(N)nc32)c1C` [Example 11.6, 2-amino-4-chloro-8-[(4-methoxy-3,5-dimethylpyridin-2-yl)methyl]-5-(3-methylbutyl)-7,8-dihydropteridin-6(5H)-one] showed a pIC50 of 7.01.

`COc1c(C)cnc(CN2c3nc(N)ncc3N(CCC(C)C)C(=O)[C@H]2C)c1C` [Example 11.7, (7R)-2-amino-8-[(4-methoxy-3,5-dimethylpyridin-2-yl)methyl]-7-methyl-5-(3-methylbutyl)-7,8-dihydropteridin-6(5H)-one] gave a pIC50 of 6.43. Consider `CCCN1C(=O)[C@@H](C)N(Cc2ncc(C)c(OC)c2C)c2nc(N)ncc21` [Example 11.8, (7R)-2-amino-8-[(4-methoxy-3,5-dimethylpyridin-2-yl)methyl]-7-methyl-5-propyl-7,8-dihydropteridin-6(5H)-one], for which the pIC50 was 6.26. As to `COc1c(C)cnc(CN2c3nc(N)ncc3N(Cc3ccccc3)C(=O)[C@H]2C)c1C` [Example 11.9, (7R)-2-amino-5-benzyl-8-[(4-methoxy-3,5-dimethylpyridin-2-yl)methyl]-7-methyl-7,8-dihydropteridin-6(5H)-one], the pIC50 was 6.49. Take `COc1c(C)cnc(CN2c3nc(N)ncc3N(CC3CC3)C(=O)[C@H]2C)c1C` [Example 11.10, (7R)-2-amino-5-(cyclopropylmethyl)-8-[(4-methoxy-3,5-dimethylpyridin-2-yl)methyl]-7-methyl-7,8-dihydropteridin-6(5H)-one]: the pIC50 was 6.10. `COc1c(C)cnc(CN2c3nc(N)ncc3N(CCN3CCCC3)C(=O)[C@H]2C)c1C` [Example 11.11, (7R)-2-amino-8-[(4-methoxy-3,5-dimethylpyridin-2-yl)methyl]-7-methyl-5-(2-pyrrolidin-1-ylethyl)-7,8-dihydropteridin-6(5H)-one] gave a pIC50 of 5.22.

Compound `COc1c(C)cnc(CN2c3nc(N)ncc3N(CC(C)(C)N(C)C)C(=O)[C@H]2C)c1C` [Example 11.12, (7R)-2-amino-5-[2-(dimethylamino)-2-methylpropyl]-8-[(4-methoxy-3,5-dimethylpyridin-2-yl)methyl]-7-methyl-7,8-dihydropteridin-6(5H)-one] gave a pIC50 of 4.80. Consider `COc1c(C)cnc(CN2c3nc(N)ncc3N(CCCN(C)C)C(=O)[C@H]2C)c1C` [Example 11.13, (7R)-2-amino-5-[3-(dimethylamino)propyl]-8-[(4-methoxy-3,5-dimethylpyridin-2-yl)methyl]-7-methyl-7,8-dihydropteridin-6(5H)-one], for which the pIC50 is 5.31.

Compound `COc1c(C)cnc(CN2c3nc(N)ncc3N(CCN3CCOCC3)C(=O)[C@H]2C)c1C` [Example 11.14, (7R)-2-amino-8-[(4-methoxy-3,5-dimethylpyridin-2-yl)methyl]-7-methyl-5-(2-morpholin-4-ylethyl)-7,8-dihydropteridin-6(5H)-one] showed a pIC50 of 5.62. In turn, `COc1c(C)cnc(CN2c3nc(N)ncc3N(CCc3ccncc3)C(=O)[C@H]2C)c1C` [Example 11.15, (7R)-2-amino-8-[(4-methoxy-3,5-dimethylpyridin-2-yl)methyl]-7-methyl-5-(2-pyridin-4-ylethyl)-7,8-dihydropteridin-6(5H)-one] gave a pIC50 of 6.25. `COc1c(C)cnc(CN2c3nc(N)ncc3N(CCc3cccnc3)C(=O)[C@H]2C)c1C` [Example 11.16, (7R)-2-amino-8-[(4-methoxy-3,5-dimethylpyridin-2-yl)methyl]-7-methyl-5-(2-pyridin-3-ylethyl)-7,8-dihydropteridin-6(5H)-one]: the pIC50 was 6.27.

In the case of `COc1c(C)cnc(CN2c3nc(N)ncc3N(CCCc3cccnc3)C(=O)[C@H]2C)c1C` [Example 11.17, (7R)-2-amino-8-[(4-methoxy-3,5-dimethylpyridin-2-yl)methyl]-7-methyl-5-(3-pyridin-3-ylpropyl)-7,8-dihydropteridin-6(5H)-one], the pIC50 is 5.83. Compound `COc1c(C)cnc(CN2CC(=O)N(CCc3cccnc3)c3c(Cl)nc(N)nc32)c1C` [Example 11.18, 2-amino-4-chloro-8-[(4-methoxy-3,5-dimethylpyridin-2-yl)methyl]-5-(2-pyridin-3-ylethyl)-7,8-dihydropteridin-6(5H)-one] showed a pIC50 of 6.78. For `CCCN1C(=O)CN(Cc2ncc(C)c(OC)c2C)c2nc(N)ncc21` [Example 11.19, 2-amino-8-[(4-methoxy-3,5-dimethylpyridin-2-yl)methyl]-5-propyl-7,8-dihydropteridin-6(5H)-one] the value was 6.21.

Take `COc1c(C)cnc(CN2c3nc(N)ncc3N(CCN3CCNC3=O)C(=O)[C@H]2C)c1C` [Example 11.20, (7R)-2-amino-8-[(4-methoxy-3,5-dimethylpyridin-2-yl)methyl]-7-methyl-5-[2-(2-oxoimidazolidin-1-yl)ethyl]-7,8-dihydropteridin-6(5H)-one]: the pIC50 was 5.57. Take `COc1c(C)cnc(CN2c3nc(N)ncc3N(CCN3CCCC3=O)C(=O)[C@H]2C)c1C` [Example 11.21, (7R)-2-amino-8-[(4-methoxy-3,5-dimethylpyridin-2-yl)methyl]-7-methyl-5-[2-(2-oxopyrrolidin-1-yl)ethyl]-7,8-dihydropteridin-6(5H)-one]: the pIC50 is 5.34. For `COc1c(C)cnc(CN2CC(=O)N(Cc3ccccc3)c3c(Cl)nc(N)nc32)c1C` [Example 11.22, 2-amino-5-benzyl-4-chloro-8-[(4-methoxy-3,5-dimethylpyridin-2-yl)methyl]-7,8-dihydropteridin-6(5H)-one] the value was 6.54; for `CCCN1C(=O)CN(Cc2ncc(C)c(OC)c2C)c2nc(N)nc(Cl)c21` [Example 11.23, 2-amino-4-chloro-8-[(4-methoxy-3,5-dimethylpyridin-2-yl)methyl]-5-propyl-7,8-dihydropteridin-6(5H)-one], 7.30; for `COc1c(C)cnc(CN2CC(=O)N(CCc3ccccc3)c3c(Cl)nc(N)nc32)c1C` [Example 11.24, 2-amino-4-chloro-8-[(4-methoxy-3,5-dimethylpyridin-2-yl)methyl]-5-(2-phenylethyl)-7,8-dihydropteridin-6(5H)-one], 7.09. The figure for `COc1c(C)cnc(CN2c3nc(N)ncc3NC(=O)[C@H]2CC(=O)O)c1C` [Example 12, {(7R)-2-amino-8-[(4-methoxy-3,5-dimethylpyridin-2-yl)methyl]-6-oxo-5,6,7,8-tetrahydropteridin-7-yl}acetic acid] is 5.13. As for `COc1c(C)cnc(CN2c3nc(N)ncc3NC(=O)[C@H]2CC(N)=O)c1C` [Example 13, 2-{(7R)-2-amino-8-[(4-methoxy-3,5-dimethylpyridin-2-yl)methyl]-6-oxo-5,6,7,8-tetrahydropteridin-7-yl}acetamide], the pIC50 was 5.76. `COc1c(C)cnc(CN2c3nc(N)ncc3NC(=O)[C@H]2CC(=O)NCCCN(C)C)c1C` [Example 14.1, 2-{(7R)-2-amino-8-[(4-methoxy-3,5-dimethylpyridin-2-yl)methyl]-6-oxo-5,6,7,8-tetrahydropteridin-7-yl}-N-[3-(dimethylamino)propyl]acetamide] gave a pIC50 of 5.79. The figure for `COc1c(C)cnc(CN2c3nc(N)ncc3NC(=O)[C@H]2CC(=O)NCCN(C)C)c1C` [Example 14.2, 2-{(7R)-2-amino-8-[(4-methoxy-3,5-dimethylpyridin-2-yl)methyl]-6-oxo-5,6,7,8-tetrahydropteridin-7-yl}-N-[2-(dimethylamino)ethyl]acetamide] is 5.79.

For the compound `COc1c(C)cnc(CN2CC(=O)Nc3c(C)nc(N)nc32)c1C` [Example 15, 2-amino-8-[(4-methoxy-3,5-dimethyl-pyridin-2-yl)methyl]-4-methyl-5,7-dihydropteridin-6-one], the pIC50 was 6.09.
